We go through 25 compounds from patent publication US10526336B2, “Fused heteroaryl derivatives as orexin receptor antagonists” (Merck Sharp & Dohme Corp., priority 2014, dated 2020).

Broadly, the IC50 is the concentration that gives 50% inhibition.

For this experiment, the target named is human orexin-2 receptor (Homo sapiens (Human), UniProt O43614). The experiment can be described thus: FLIPR Ca2+ Flux Assay, orexin-2 receptor antagonism in CHO cells. Format: cell-based. The conditions noted are these: CHO cells expressing the human orexin-2 receptor; agonist 70 pM Ala-6,12 orexin-A; read-out: hOX2 FLIPR IC50. How it is done: The utility of the compounds in accordance with the present invention as orexin receptor OX1R and/or OX2R antagonists may be readily determined without undue experimentation by methodology well known in the art, including the “FLIPR Ca^2+ Flux Assay” (Okumura et al., Biochem. Biophys. Res. Comm. 280:976-981, 2001). In a typical experiment the OX1 and OX2 receptor antagonistic activity of the compounds of the present invention was determined in accordance with the following experimental method. For intracellular calcium measurements, Chinese hamster ovary (CHO) cells expressing the rat orexin-1 receptor or the human orexin-2 receptor, are grown in Iscove's modified DMEM containing 2 mM L-glutamine, […], 1% hypoxanthine-thymidine supplement, 100 U/ml penicillin, 100 μg/ml streptomycin and 10% heat-inactivated fetal calf serum (FCS). The cells are seeded at 20,000 cells/well into Becton-Dickinson black 384-well clear bottom sterile plates coated with poly-D-lysine. All reagents are from GIBCO-Invitrogen Corp. The seeded plates are incubated overnight at 37° C. and 5% CO2. Ala-6,12 human orexin-A as the agonist is prepared as a 1 mM stock solution in 1% bovine serum albumin (BSA) and diluted in assay buffer (HBSS containing 20 mM HEPES, 0.1% BSA and 2.5 mM probenecid, pH7.4) for use in the assay at a final concentration of 70 pM. Test compounds are prepared as 10 mM stock solution in DMSO, then diluted in 384-well plates, first in DMSO, then assay buffer. On the day of the assay, cells are washed 3 times with 100 μl assay buffer and then incubated for 60 min (37° C., 5% CO2) in 60 μl assay buffer containing […] Fluo-4AM ester, 0.02% pluronic acid, and 1% BSA. The dye loading solution is then aspirated and cells are washed 3 times with 100 μl assay buffer. 30 μl of that same buffer is left in each well. Within the Fluorescent Imaging Plate Reader (FLIPR, Molecular Devices), test compounds are added to the plate in a volume of 25 μl, incubated for 5 min and finally 25 μl of agonist is added. Fluorescence is measured for each well at 1 second intervals for 5 minutes and the height of each fluorescence peak is compared to the height of the fluorescence peak induced by 70 pM Ala-6,12 orexin-A with buffer in place of antagonist. For each antagonist, IC50 value (the concentration of compound needed to inhibit 50% of the agonist response) is determined. Alternatively, compound potency can be assessed by a radioligand binding assay (described in Bergman et. al. Bioorg. Med. Chem. Lett. 2008, 18, 1425-1430) in which the inhibition constant (Ki) is determined in membranes prepared from CHO cells expressing either the OX1 or OX2 receptor. The intrinsic orexin receptor antagonist activity of a compound which may be used in the present invention may be determined by these assays.
human orexin-2 receptor, sequence (O43614 whole entry): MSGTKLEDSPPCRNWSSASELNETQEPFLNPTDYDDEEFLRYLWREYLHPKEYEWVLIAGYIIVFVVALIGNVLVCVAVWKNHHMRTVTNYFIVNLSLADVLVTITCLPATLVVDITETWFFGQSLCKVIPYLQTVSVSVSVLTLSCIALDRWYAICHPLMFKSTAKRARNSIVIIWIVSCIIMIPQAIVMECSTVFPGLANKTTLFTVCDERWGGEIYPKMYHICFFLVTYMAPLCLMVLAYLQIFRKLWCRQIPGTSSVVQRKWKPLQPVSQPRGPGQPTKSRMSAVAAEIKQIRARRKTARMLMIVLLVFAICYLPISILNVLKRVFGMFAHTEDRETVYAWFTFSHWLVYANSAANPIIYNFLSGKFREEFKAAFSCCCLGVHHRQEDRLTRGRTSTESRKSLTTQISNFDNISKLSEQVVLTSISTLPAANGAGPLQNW
With `C[C@@H]1CC[C@@H](Oc2nccn3ccnc23)CN1C(=O)c1ccccc1-n1nccn1` [Example 1, (2-(2H-1,2,3-triazol-2-yl)phenyl)((2R,5R)-5-(imidazo[1,2-a]pyrazin-8-yloxy)-2-methylpiperidin-1-yl)methanone], the half-maximal inhibitory concentration (IC50) was determined as 35.8 nM. Then `C[C@@H]1CC[C@@H](Oc2nccn3ccnc23)CN1C(=O)c1ccccc1CS(C)(=O)=O` [Example 2, ((2R,5R)-5-(imidazo[1,2-a]pyrazin-8-yloxy)-2-methylpiperidin-1-yl)(2-((methylsulfonyl)methyl)phenyl)methanone], with 59 nM. Then `C[C@@H]1CC[C@@H](Oc2nccn3ccnc23)CN1C(=O)c1ccccc1CC(F)(F)F` [Example 3, ((2R,5R)-5-(imidazo[1,2-α]pyrazin-8-yloxy)-2-methylpiperidin-1-yl)(2-(2,2,2-trifluoroethyl)phenyl)methanone], with 50.4 nM. Then `CCCc1ccccc1C(=O)N1C[C@H](Oc2nccn3ccnc23)CC[C@H]1C` [Example 4, ((2R,5R)-5-(imidazo[1,2-a]pyrazin-8-yloxy)-2-methylpiperidin-1-yl)(2-propylphenyl)methanone], with 31.9 nM; and `C[C@@H]1CC[C@@H](Sc2nccn3ccnc23)CN1C(=O)c1ccccc1-n1nccn1` [Example 5, (2-(2H-1,2,3-triazol-2-yl)phenyl)((2R,5R)-5-(imidazo[1,2-a]pyrazin-8-ylthio)-2-methylpiperidin-1-yl)methanone], with 10.3 nM; and `Cc1cn2ccnc(O[C@@H]3CC[C@@H](C)N(C(=O)c4ccccc4-n4nccn4)C3)c2n1` [Example 6, (2-(2H-1,2,3-triazol-2-yl)phenyl)((2R,5R)-2-methyl-5-((2-methylimidazo[1,2-a]pyrazin-8-yl)oxy)piperidin-1-yl)methanone], with 8 nM. In the case of `Cc1cn2ccnc(O[C@@H]3CC[C@@H](C)N(C(=O)c4ccsc4-n4nccn4)C3)c2n1` [Example 7, (2-(2H-1,2,3-triazol-2-yl)thiophen-3-yl)((2R,5R)-2-methyl-5-((2-methylimidazo[1,2-a]pyrazin-8-yl)oxy)piperidin-1-yl)methanone], the IC50 was determined as 27.4 nM. Take `Cc1cn2ccnc(O[C@@H]3CC[C@@H](C)N(C(=O)c4cscc4-n4nccn4)C3)c2n1` [Example 8, (4-(2H-1,2,3-triazol-2-yl)thiophen-3-yl)((2R,5R)-2-methyl-5-((2-methylimidazo[1,2-α]pyrazin-8-yl)oxy)piperidin-1-yl)methanone]: the IC50 turned out to be 39.1 nM. Then `Cc1cn2ccnc(O[C@@H]3CC[C@@H](C)N(C(=O)c4ccccc4C4(C#N)CC4)C3)c2n1` [Example 9, 1-(2-((2R,5R)-2-methyl-5-((2-methylimidazo[1,2-α]pyrazin-8-yl)oxy)piperidine-1-carbonyl)phenyl)cyclopropanecarbonitrile], with 13.2 nM.

Take `Cc1cn2ccnc(O[C@@H]3CC[C@@H](C)N(C(=O)c4ccc(F)cc4-n4nccn4)C3)c2n1` [Example 10, (4-fluoro-2-(2H-1,2,3-triazol-2-yl)phenyl)((2R,5R)-2-methyl-5-((2-methylimidazo[1,2-α]pyrazin-8-yl)oxy)piperidin-1-yl)methanone]: the IC50 came out at 31.2 nM. Consider `Cc1cn2ccnc(O[C@@H]3CC[C@@H](C)N(C(=O)c4ccccc4-n4ncnn4)C3)c2n1` [Example 11, (2-(2H-tetrazol-2-yl)phenyl)((2R,5R)-2-methyl-5-((2-methylimidazo[1,2-α]pyrazin-8-yl)oxy)piperidin-1-yl)methanone], for which the IC50 turned out to be 22.2 nM. Then `Cc1cn2ccnc(O[C@@H]3CC[C@@H](C)N(C(=O)c4ccccc4CS(C)(=O)=O)C3)c2n1` [Example 12, ((2R,5R)-2-methyl-5-((2-methylimidazo[1,2-α]pyrazin-8-yl)oxy)piperidin-1-yl)(2-((methylsulfonyl)methyl)phenyl)methanone], with 46.2 nM; and `Cc1cn2ccnc(O[C@@H]3CC[C@@H](C)N(C(=O)c4cscc4-c4ncccn4)C3)c2n1` [Example 13, ((2R,5R)-2-methyl-5-((2-methylimidazo[1,2-a]pyrazin-8-yl)oxy)piperidin-1-yl)(4-(pyrimidin-2-yl)thiophen-3-yl)methanone], with 63.7 nM; and `Cc1cn2ccnc(O[C@@H]3CC[C@@H](C)N(C(=O)c4ccsc4-c4ncccn4)C3)c2n1` [Example 14, ((2R,5R)-2-methyl-5-((2-methylimidazo[1,2-α]pyrazin-8-yl)oxy)piperidin-1-yl) (2-(pyrimidin-2-yl)thiophen-3-yl)methanone], with 36.8 nM.

Turning to `Cc1cn2ccnc(O[C@@H]3CC[C@@H](C)N(C(=O)c4cccnc4OCC(F)F)C3)c2n1` [Example 15, (2-(2,2-difluoroethoxy)pyridin-3-yl)((2R,5R)-2-methyl-5-((2-methylimidazo[1,2-a]pyrazin-8-yl)oxy)piperidin-1-yl)methanone], the IC50 is 41.7 nM. For the compound `Cc1cn2ccnc(O[C@@H]3CC[C@@H](C)N(C(=O)c4cccnc4OCC(F)(F)F)C3)c2n1` [Example 16, ((2R,5R)-2-methyl-5-((2-methylimidazo [1,2-α]pyrazin-8-yl)oxy)piperidin-1-yl) (2-(2,2,2-trifluoroethoxy)pyridin-3-yl)methanone], the IC50 was found to be 33.5 nM. Then `Cc1cn2ccnc(O[C@@H]3CC[C@@H](C)N(C(=O)c4cccnc4-c4ccccc4)C3)c2n1` [Example 17, ((2R,5R)-2-methyl-5-((2-methylimidazo [1,2-α]pyrazin-8-yl)oxy)piperidin-1-yl) (2-phenylpyridin-3-yl)methanone], with 68.4 nM. The value for `Cc1cn2ccnc(O[C@@H]3CC[C@@H](C)N(C(=O)c4cccnc4-n4cccn4)C3)c2n1` [Example 18, (2-(1H-pyrazol-1-yl)pyridin-3-yl) ((2R,5R)-2-methyl-5-((2-methylimidazo[1,2-α]pyrazin-8-yl)oxy)piperidin-1-yl)methanone] was 58.7 nM; that for `Cc1cn2ccnc(N[C@@H]3CC[C@@H](C)N(C(=O)c4ccccc4-n4nccn4)C3)c2n1` [Example 19, (2-(2H-1,2,3-triazol-2-yl)phenyl)((2R,5R)-2-methyl-5-((2-methylimidazo[1,2-a]pyrazin-8-yl)amino)piperidin-1-yl)methanone] was 50.9 nM. Consider `CC(C)c1cn2ccnc(O[C@@H]3CC[C@@H](C)N(C(=O)c4ccccc4-n4nccn4)C3)c2n1` [Example 20, (2-(2H-1,2,3-triazol-2-yl)phenyl)((2R,5R)-5-((2-isopropylimidazo[1,2-a]pyrazin-8-yl)oxy)-2-methylpiperidin-1-yl)methanone], for which the IC50 stood at 49 nM. For the compound `C[C@@H]1CC[C@@H](Oc2nccn3cc(C(F)(F)F)nc23)CN1C(=O)c1ccccc1-n1nccn1` [Example 21, (2-(2H-1,2,3-triazol-2-yl)phenyl)((2R,5R)-2-methyl-5-((2-(trifluoromethyl)imidazo[1,2-a]pyrazin-8-yl)oxy)piperidin-1-yl)methanone], the IC50 came to 63.7 nM. `C[C@@H]1CC[C@@H](Nc2nccn3cc(C(F)(F)F)nc23)CN1C(=O)c1ccccc1-n1nccn1` [Example 22, (2-(2H-1,2,3-triazol-2-yl)phenyl)((2R,5R)-2-methyl-5-((2-(trifluoromethyl)imidazo[1,2-a]pyrazin-8-yl)amino)piperidin-1-yl)methanone]: the IC50 was found to be 45.4 nM.

Take `C[C@@H]1CC[C@@H](Nc2nccn3cc(C(F)(F)F)nc23)CN1C(=O)c1ccsc1-n1nccn1` [Example 23, (2-(2H-1,2,3-triazol-2-yl)thiophen-3-yl) ((2R,5R)-2-methyl-5-((2-(trifluoromethyl)imidazo[1,2-α]pyrazin-8-yl)amino)piperidin-1-yl)methanone]: the IC50 is 99.3 nM. The value for `C[C@@H]1CC[C@@H](Oc2nccn3cc(C#N)nc23)CN1C(=O)c1ccccc1-n1nccn1` [Example 24, 8-(((3R,6R)-1-(2-(2H-1,2,3-triazol-2-yl)benzoyl)-6-methylpiperidin-3-yl)oxy)imidazo[1,2-a]pyrazine-2-carbonitrile] was 88.2 nM; that for `C[C@@H]1CC[C@@H](Oc2nccn3cc(CO)nc23)CN1C(=O)c1ccccc1-n1nccn1` [Example 25, (2-(2H-1,2,3-triazol-2-yl)phenyl)((2R,5R)-5-((2-(hydroxymethyl)imidazo[1,2-a]pyrazin-8-yl)oxy)-2-methylpiperidin-1-yl)methanone] was 49.3 nM.
